Data taken from EP0522203A1, “Protein from lactic acid bacteria” (PROBICOM RESEARCH B.V., priority 1991, dated 1993).
Where two headings read alike, the source gives them in different places. *1 amine or outer side, *2 acyl side, *3 side chain or, on linkers, in order; H or OH if unused. Where a SMILES comes first, the peptide text is derived from it. The star is where a group is joined. pNA = O=[N+]([O-])c1ccc(N*)cc1; Suc = O=C(CCC(=O)[*:2])[*:1]; Cbz = O=C(OCc1ccccc1)*; Bz = O=C(c1ccccc1)*

Experiments:
endopeptidase = assay: Effect of potential inhibitors (chemical agents) on the endopeptidase activity (metenkaphalin hydrolysis, TLC); format: biochemical, L. lactis subsp. cremoris Wg2; set-up: key to Inhibition: +: Inhibition; -: No inhibition detectable
[1] = system: endopeptidase from L. lactis subsp. cremoris Wg2; assay: Substrate specificity: hydrolysis of peptides by the purified endopeptidase, analysed by thin layer chromatography; format: biochemical; set-up: key to Activity: +: hydrolysis; -: no hydrolysis detectable
LEP I = details: cited from earlier work
[2] = 1 mM chemical agent, purified enzyme 4 µg protein preincubated 10 min at 20°C, metenkaphalin 15 min at 30°C, TLC
[3] = hydrolysis of the substrate by purified endopeptidase, analysed by TLC
[4] = chromogenic substrates: TLC, hydrolysis also measured at A410

O[C@H](CS)[C@H](O)CS (racemic) [DTT, dithiothreitol]
Inhibition (endopeptidase; [2]): - | endopeptidase activity inhibited (endopeptidase; chemical agent 1.0 mM): not

c1cnc2c(c1)ccc1cccnc12 [1,10-phenanthroline]
Inhibition (endopeptidase; [2]): + | endopeptidase activity inhibited (endopeptidase; chemical agent 1.0 mM): inhibited

C[C@H](N)C(=O)N[C@@H](C)C(=O)N[C@@H](C)C(=O)N[C@@H](C)C(=O)N[C@@H](C)C(=O)O [Ala5]
Activity [1]: -

C[C@H](N)C(=O)N[C@@H](C)C(=O)N[C@@H](C)C(=O)N[C@@H](C)C(=O)N[C@@H](C)C(=O)N[C@@H](C)C(=O)O [Ala6]
Activity [1]: -

C[C@H](N)C(=O)N1CCC[C@H]1C(=O)Nc1ccc([N+](=O)[O-])cc1 [Ala-Pro-pNA] (H-Ala-Pro-pNA)
Activity [1]: -

NCCCC[C@H](NC(=O)CNC(=O)c1ccccc1)C(=O)O [Bz-Gly-Lys] (Bz-Gly-Lys-OH)
Activity [1]: -

O=C(NCC(=O)N1CCC[C@H]1C(=O)O)c1ccccc1 [Bz-Gly-Pro] (Bz-Gly-Pro-OH)
Activity [1]: -

N[C@@H](CSSC[C@H](N)C(=O)O)C(=O)O [Cystine]
Inhibition (endopeptidase; [2]): -

CCOC(=O)OC(=O)OCC [DEPC]
Inhibition (endopeptidase; [2]): -

NCC(=O)NCC(=O)O [Gly-Gly] (H-Gly-Gly-OH)
Activity [1]: -

C[C@H](NC(=O)[C@@H]1CCCN1C(=O)CN)C(=O)N1CCC[C@H]1C(=O)O [Gly-Pro-Ala-Pro] (H-GPAP-OH)
Activity [1]: -

NCC(=O)N1CCC[C@H]1C(=O)NCC(=O)NCC(=O)O [Gly-Pro-Gly-Gly] (H-GPGG-OH)
Activity [1, 3]: -

NCC(=O)N1CCC[C@H]1C(=O)Nc1ccc([N+](=O)[O-])cc1 [Gly-Pro-pNA] (H-Gly-Pro-pNA)
Activity [1]: -

CC(C)[C@H](NC(=O)CN)C(=O)N[C@@H](Cc1ccccc1)C(=O)O [Gly-Val-Phe] (H-Gly-Val-Phe-OH)
Activity [1]: -

CC(C)C[C@H](N)C(=O)NCC(=O)NCC(=O)O [Leu-Gly-Gly] (H-Leu-Gly-Gly-OH)
Activity [1, 3]: -

CC(C)C[C@H](NC(=O)[C@H](CC(C)C)NC(=O)[C@@H](N)CC(C)C)C(=O)O [Leu-Leu-Leu] (H-Leu-Leu-Leu-OH)
Activity [1]: -

CC(C)C[C@H](NC(=O)[C@@H](N)CC(C)C)C(=O)O [Leu-Leu]
Activity [1]: -

NCCCC[C@H](N)C(=O)Nc1ccc([N+](=O)[O-])cc1 [Lys-pNA]
Activity [1, 4]: -

COC(CNC(=O)c1ccccc1OCC(=O)O)[CH2][Hg][OH] (stereo not drawn) [Mersalyl, O-(3-hydroxymercuri-2-methoxypropyl)-carbamylphenoxyacetate]
Inhibition (endopeptidase): - | endopeptidase activity inhibited (endopeptidase): did not have an effect on the activity

CSCC[C@H](N)C(=O)NCC(=O)NCC(=O)O [Met-Gly-Gly] (H-Met-Gly-Gly-OH)
Activity [1]: -

CSCC[C@H](NC(=O)[C@H](Cc1ccccc1)NC(=O)CNC(=O)CNC(=O)[C@@H](N)Cc1ccc(O)cc1)C(=O)O [Metenkaphalin, Tyrosyl-glycyl-glycyl-phenylalanyl-methionine]
Activity [1]: +

CCN1C(=O)C=CC1=O [N-Ethylmaleimide]
Inhibition (endopeptidase): -

C[C@H](NC(=O)CCC(=O)O)C(=O)N[C@@H](C)C(=O)N[C@@H](C)C(=O)Nc1ccc([N+](=O)[O-])cc1 [Nsucc-Ala-Ala-Ala-pNA]
Activity [1]: -

CC(C)C[C@H](NC(=O)[C@@H]1CCCN1C(=O)[C@H](C)NC(=O)[C@H](C)NC(=O)CCC(=O)O)C(=O)Nc1ccc([N+](=O)[O-])cc1 [Nsucc-Ala-Ala-Pro-Leu-pNA] (Suc-AAPL-pNA)
Activity [1]: -

O=C(O)CCC(=O)N[C@@H](Cc1ccccc1)C(=O)Nc1ccc([N+](=O)[O-])cc1 [Nsucc-Phe-pNA]
Activity [1, 4]: -

O=S(=O)(F)Cc1ccccc1 [PMSF, phenylmethylsulfonylfluoride]
Inhibition (endopeptidase): + | endopeptidase activity inhibited (endopeptidase): inhibited

CSCC[C@H](NC(=O)[C@@H](N)Cc1ccccc1)C(=O)O [Phe-Met] (H-Phe-Met-OH)
Activity [1]: -

CC(C)[C@H](NC(=O)[C@@H](N)Cc1ccccc1)C(=O)O [Phe-Val] (H-Phe-Val-OH)
Activity [1]: -

CC1=CC(=O)c2c(O)cccc2C1=O [Plumbagin]
Inhibition (endopeptidase): - | restoration of the enzyme activity inhibited by β-mercaptoethanol (endopeptidase): could not restore the enzyme activity

CSCC[C@H](NC(=O)[C@H](CC(C)C)NC(=O)CNC(=O)[C@H](Cc1ccccc1)NC(=O)[C@H](Cc1ccccc1)NC(=O)[C@H](CCC(N)=O)NC(=O)[C@H](CCC(N)=O)NC(=O)[C@@H]1CCCN1C(=O)[C@H](CCCCN)NC(=O)[C@@H]1CCCN1C(=O)[C@@H](N)CCCNC(=N)N)C(N)=O [Substance P]
Activity [1, 3]: +

O=S(=O)(O)c1ccc2c(N=Nc3ccccc3[As](=O)(O)O)c(O)c(S(=O)(=O)O)cc2c1 [Thorin]
Inhibition (endopeptidase): -

N[C@@H](Cc1ccc(O)cc1)C(=O)NCC(=O)NCC(=O)O [Tyr-Gly-Gly, Tyrosyl-glycyl-glycine] (H-Tyr-Gly-Gly-OH)
Activity [1]: -

CC(C)C[C@H](NC(=O)OCc1ccccc1)C(=O)NCC(=O)NCC(=O)Nc1ccc([N+](=O)[O-])cc1 [Z-Leu-Gly-Gly-pNA] (Cbz-Leu-Gly-Gly-pNA)
Activity [1]: -

C[C@H](NC(=O)[C@H](Cc1ccccc1)NC(=O)OCc1ccccc1)C(=O)O [Z-Phe-Ala]
Activity [1]: -

C[C@H](NC(=O)[C@@H]1CCCN1C(=O)OCc1ccccc1)C(=O)O [Z-Pro-Ala] (Cbz-Pro-Ala-OH)
Activity [1]: -

O=C(O)c1cc[c]([Hg][Cl])cc1 [pCMB, p-chloromercuribenzoate]
Inhibition (endopeptidase): - | endopeptidase activity inhibited (endopeptidase): did not have an effect on the activity

O=S(=O)(O)c1cc[c]([Hg][Cl])cc1 [pCMBS, p-chloromercuribenzenesulfonate]
Inhibition (endopeptidase): - | endopeptidase activity inhibited (endopeptidase): did not have an effect on the activity

OCCS [β-Mercaptoethanol]
Inhibition (endopeptidase; [2]): + | reversibility of the inhibition of the enzyme (endopeptidase; β-mercaptoethanol): irreversible | endopeptidase activity inhibited (endopeptidase; β-mercaptoethanol 1%): inhibited

Bradykinin (RPPGFSPFR; Bradykinin; UniProt P01042 381-389, looked up)
Activity [1, 3]: +

Glucagon
hydrolysis by LEP I (LEP I): cannot hydrolyse | Activity [1]: +

Hydroxylamine
Inhibition (endopeptidase): -

Neurotensin
Activity [1]: +

oxidized gluta thione
restoration of the enzyme activity inhibited by β-mercaptoethanol (endopeptidase; oxidizing reagents up to 5 mM): could not restore the enzyme activity

oxydized insulin β-chain
hydrolysis by LEP I (LEP I): cannot hydrolyse | Activity [1]: + | hydrolysis by the purified endopeptidase [1]: hydrolyzed

β-Casein(184-202) (DMPIQAFLLYQEPVLGPVR; UniProt P02666 199-217, looked up, fragment)
Activity [1, 3]: +

β-Casein(203-209) (GPFPIIV; UniProt P02666 218-224, looked up, fragment)
Activity [1, 3]: +

β-Casein( 33- 48) (FQSEEQQQTEDELQDK; UniProt P02666 48-63, looked up, fragment)
Activity [1, 3]: -

β-Casomorphin
Activity [1]: -
